Results: PubChem BioAssay AID1845209 (Molecular Pharmacology Branch, DTP, NCI, 2023)

System: NCI-H211 tumor spheroids, viability percent test/control
Assay: Anticancer human tumor NCI-H211 cell line growth inhibition;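 further: spheroids exposed to agents for seven days before readout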
Settings: spheroids with HUVEC and MSC; for IC50: curve of first compound; for viability, T/C: stronger effect = lower value
Excerpt: Multicellular complex tumor spheroid response to DNA repair inhibitors in combination with DNA-damaging drugs
This study explores the anticancer activities of DNA-damaging drugs and inhibitors of DNA damage repair, both as single agents and in combinations. Complex tumor spheroids comprised of malignant cells, endothelial cells and mesenchymal stem cells served as an in vitro model for human solid tumors. This model system incorporates physiologically relevant features and patient-derived or established malignant cell lines with clinically relevant genetic alterations from many tumor types. Twenty-six patient-derived or established malignant cell lines were evaluated representing sarcoma, melanoma, small cell lung cancer (SCLC), non-small cell lung cancer (NSCLC), as well as bladder, ovarian and pancreatic cancers. The concentration ranges selected for each drug and investigational agent were based upon clinically achievable concentrations if the clinical Cmax of the agent was known.
Compounds. The drugs and compounds olaparib (NSC753686), talazoparib (NSC767125), berzosertib (NSC777718), elimusertib (NSC800525), nedisertib (NSC802822), VX-984 (NSC792969), AZD-1390 (NSC803789), temozolomide (NSC362856), topotecan (NSC609699), trabectedin (NSC813783), staurosporine (NSC755774), and gemcitabine (NSC613327) were obtained from the National Cancer Institute (NCI) Developmental Therapeutics Program Chemical Repository. The FDA-approved anticancer drug set is available from the Developmental Therapeutics Program at https://dtp.cancer.gov/organization/dscb/obtaining/available_plates.htm. […] The stock solutions were prepared in dimethyl sulfoxide (DMSO, Sigma-Aldrich, St. Louis, MO, cat. D2650) at 400-fold the tested concentration and stored at -70 degrees C. Prior to their use, the stock solutions were diluted in fresh medium and the final DMSO concentration in the assay was 0.25% (v/v). All drugs and investigational agents were tested over a range starting from a high concentration at or near the clinical Cmax and decreasing in half-log increments. If the clinical Cmax for an agent had not been determined, the highest concentration tested was 10 microM.
Cell Lines. The patient-derived cancer cell (PDC) lines: 156681-154-R-J1-PDC, 283228-195-R-J1-PDC, 287954-098-R-J1-PDC, 292921-168-R-J2-PDC, 349418-098-R-PDC, 425362-245-T-J1-PDC, 556581-035-R-J1-PDC, and BL0293-F563-PDC were received from the NCI Patient-Derived Models Repository (PDMR, https://pdmr.cancer.gov). The established cell lines HS-SY-2 (RRID:CVCL_8719), MPNST, and SYO-1 (RRID:CVCL_7146) were obtained from the Sloan Kettering Institute. The alveolar soft parts sarcoma cell line ASPS-1 (RRID:CVCL_S738) was established at the NCI and grown from internal seed stocks. The following established cell lines were purchased from the American Type Culture Collection (ATCC, Manassas, VA): G-401 (ATCC, cat. CRL-1441, RRID:CVCL_0270), SW982 (ATCC, cat. HTB-93, RRID:CVCL_1734), VA-ES-BJ (ATCC, cat. CRL-2138, RRID:CVCL_1785), NCI-H719 (ATCC, cat. CRL-5837, RRID:CVCL_1582), NCI-H196 (ATCC, cat. CRL-5823, RRID:CVCL_1509), NCI-H841 (ATCC, cat. CRL-5845, RRID:CVCL_1595), NCI-H1618 (ATCC, cat. CRL-5879, RRID:CVCL_1480), NCI-H1876 (ATCC, cat. CRL-5902, RRID:CVCL_1503), DMS 114 (ATCC, cat. CRL-2066; RRID:CVCL_1174), NCI-H211 (ATCC, cat. CRL-5824; RRID:CVCL_1529), and SW 1271 (ATCC, cat. CRL-2177, RRID:CVCL_1716). The small cell lung cancer cell line COR-L88 was purchased from Sigma-Aldrich (cat. 92031917-1VL, RRID:CVCL_1141). The non-small cell lung cancer cell lines NCI-H226 (RRID:CVCL_1544) and NCI-H322M (RRID:CVCL_1557) were established at the NCI and grown from internal seed stocks. Pooled donor human umbilical vein endothelial cells (HUVEC, Lonza, cat. CC-2519) and human mesenchymal stem cells (hMSC, Lonza, cat. PT-2501) were purchased from Lonza (Walkersville, MD).
Cell Culture. All cells were maintained in an incubator at 37 degrees C and 5% CO2 with 95% humidity. […]

With `Cc1cc(C)c(CNC(=O)c2cc(-c3ccc(CN4CCOCC4)cc3)cc3c2cnn3C2CCCC2)c(=O)[nH]1` + CC[C@@]1(O)C(=O)OCc2c1cc1n(c2=O)Cc2cc3c(CN(C)C)c(O)ccc3nc2-1 the IC50 (second compound 0.003 µM) was 1890 nM, the IC50 (second compound 0.00949 µM) was < 31.6 nM and the IC50 (second compound 0.03 µM) was < 31.6 nM. The IC50 (second compound 0.0949 µM) was < 31.6 nM, the IC50 (second compound 0.3 µM) was < 31.6 nM and the viability, T/C (second compound 0.003 µM, first compound 0.0316 µM) was 83.3%. For the same compound, the viability, T/C (second compound 0.003 µM, first compound 0.1 µM) was 78.6%, the viability, T/C (second compound 0.003 µM, first compound 0.316 µM) was 74.2% and the viability, T/C (second compound 0.003 µM, first compound 1 µM) was 58.4%. It also gave a viability, T/C (second compound 0.003 µM, first compound 3.16 µM) of 42.8%, a viability, T/C (second compound 0.003 µM, first compound 10 µM) of 24.6% and a viability, T/C (second compound 0.00949 µM, first compound 0.0316 µM) of 10.6%. It also gave a viability, T/C (second compound 0.00949 µM, first compound 0.1 µM) of 8.26%, a viability, T/C (second compound 0.00949 µM, first compound 0.316 µM) of 5.43% and a viability, T/C (second compound 0.00949 µM, first compound 1 µM) of 3.96%. The viability, T/C (second compound 0.00949 µM, first compound 3.16 µM) was 2.11%, the viability, T/C (second compound 0.00949 µM, first compound 10 µM) was 1.31% and the viability, T/C (second compound 0.03 µM, first compound 0.0316 µM) was 0.94%. The viability, T/C (second compound 0.03 µM, first compound 0.1 µM) was 1.14%, the viability, T/C (second compound 0.03 µM, first compound 0.316 µM) was 1.13% and the viability, T/C (second compound 0.03 µM, first compound 1 µM) was 0.98%. The viability, T/C (second compound 0.03 µM, first compound 3.16 µM) was 1.02%, the viability, T/C (second compound 0.03 µM, first compound 10 µM) was 0.92% and the viability, T/C (second compound 0.0949 µM, first compound 0.0316 µM) was 1.01%. For the same compound, the viability, T/C (second compound 0.0949 µM, first compound 0.1 µM) was 1.06%, the viability, T/C (second compound 0.0949 µM, first compound 0.316 µM) was 0.94% and the viability, T/C (second compound 0.0949 µM, first compound 1 µM) was 1.17%. The viability, T/C (second compound 0.0949 µM, first compound 3.16 µM) was 1.46%, the viability, T/C (second compound 0.0949 µM, first compound 10 µM) was 1.47% and the viability, T/C (second compound 0.3 µM, first compound 0.0316 µM) was 1.21%. For the same compound, the viability, T/C (second compound 0.3 µM, first compound 0.1 µM) was 1.42%, the viability, T/C (second compound 0.3 µM, first compound 0.316 µM) was 1.39% and the viability, T/C (second compound 0.3 µM, first compound 1 µM) was 1.4%. The viability, T/C (second compound 0.3 µM, first compound 3.16 µM) was 1.35% and the viability, T/C (second compound 0.3 µM, first compound 10 µM) was 1.52%.
